Among the data in US20140045823A1 (Neurocrine Biosciences, Inc., priority 2012, published 2014) are EC50 values, retold here.

The structures appear in SMILES notation.

In the experiment the target is T1, human GPR119 (Homo sapiens, UniProt Q8TDV5).
T1 construct: expression vector for human GPR119 cDNA (Acc. No. NP_848566); expressed in transfected cells; Min-6/hGPR119
T1 sequence (Q8TDV5 1-335): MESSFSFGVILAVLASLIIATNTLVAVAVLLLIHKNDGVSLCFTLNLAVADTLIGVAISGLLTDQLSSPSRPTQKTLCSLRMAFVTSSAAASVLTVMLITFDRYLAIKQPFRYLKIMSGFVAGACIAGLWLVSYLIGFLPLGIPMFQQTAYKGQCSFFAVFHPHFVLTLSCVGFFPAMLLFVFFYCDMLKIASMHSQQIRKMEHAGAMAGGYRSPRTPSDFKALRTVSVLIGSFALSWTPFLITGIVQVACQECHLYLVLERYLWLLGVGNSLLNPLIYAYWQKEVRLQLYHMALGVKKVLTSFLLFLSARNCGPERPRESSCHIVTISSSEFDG
Description: AlphaScreen cAMP assay in MIN6 cells stably transfected with human GPR119. Particulars: Min-6/hGPR119 cells, 45 min at room temperature. The format is cell-based. Summed up: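 cAMP accumulation quantified by AlphaScreen after 45 min compound stimulation at about 20 °C. Stimulation buffer: pH 7.4 HEPES saline with 0.5 mM IBMX, 0.1% BSA, 1% DMSO final. Cells: MIN6 stably transfected with human GPR119, 10000/well, cultured 24 h beforehand.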
The term EC50 denotes the concentration needed to bring the measured effect to its halfway point. For `CC(C)(C)OC(=O)N1CCC(N(C(=O)c2cnc(-c3ccc(C(=O)Nc4ccn[nH]4)cc3)nc2)C2CC2)CC1` [Example 208, 4-(Cyclopropyl-{2-[4-(2H-pyrazol-3-ylcarbamoyl)-phenyl]-pyrimidine-5-carbonyl}-amino)-piperidine-1-carboxylic acid tert-butyl ester], a half-maximal response (EC50) required 181 nM.
To `CN(Cc1ccncc1)C(=O)Cc1ccc(-c2ncc(C(=O)N(C3CC3)C3CCN(C(=O)OC(C)(C)C)CC3)cn2)cc1` [Example 209, 4-[Cyclopropyl-(2-{4-[(methyl-pyridin-4-ylmethyl-carbamoyl)-methyl]-phenyl}-pyrimidine-5-carbonyl)-amino]-piperidine-1-carboxylic acid tert-butyl ester] belongs 312 nM; to `CC(O)c1cccc(NC(=O)Cc2ccc(-c3ncc(C(=O)N(C4CC4)C4CCN(C(=O)OC(C)(C)C)CC4)cn3)cc2)c1` (stereo not drawn) [Example 210, 4-{Cyclopropyl-[2-(4-{[3-(1-hydroxy-ethyl)-phenylcarbamoyl]-methyl}-phenyl)-pyrimidine-5-carbonyl]-amino}-piperidine-1-carboxylic acid tert-butyl ester], 593 nM; to `CC(C)(C)OC(=O)N1CCC(N(C(=O)c2cnc(-c3ccc(CC(=O)N4CCC[C@@H]4C#N)cc3)nc2)C2CC2)CC1` [Example 211, 4-[(2-{4-[2-(2-Cyano-pyrrolidin-1-yl)-2-oxo-ethyl]-phenyl}-pyrimidine-5-carbonyl)-cyclopropyl-amino]-piperidine-1-carboxylic acid tert-butyl ester], 561 nM.
To `COC[C@@H]1CCCN1C(=O)Cc1ccc(-c2ncc(C(=O)N(C3CC3)C3CCN(C(=O)OC(C)(C)C)CC3)cn2)cc1` [Example 212, 4-[Cyclopropyl-(2-{4-[2-(2-methoxymethyl-pyrrolidin-1-yl)-2-oxo-ethyl]-phenyl}-pyrimidine-5-carbonyl)-amino]-piperidine-1-carboxylic acid tert-butyl ester] belongs 350 nM.
With `CC(C)(C)OC(=O)N1CCC(N(C(=O)c2cnc(-c3ccc(CC(=O)NC4CCOCC4)cc3)nc2)C2CC2)CC1` [Example 213, 4-[Cyclopropyl-(2-{4-[(tetrahydro-pyran-4-ylcarbamoyl)-methyl]-phenyl}-pyrimidine-5-carbonyl)-amino]-piperidine-1-carboxylic acid tert-butyl ester] the figure was 521 nM.
In turn, `CC(C)(C)OC(=O)N1CCC(N(C(=O)c2cnc(-c3ccc(CC(=O)N4CCC[C@H]4C#N)cc3)nc2)C2CC2)CC1` [Example 214, 4-[(2-{4-[2-(2-Cyano-pyrrolidin-1-yl)-2-oxo-ethyl]-phenyl}-pyrimidine-5-carbonyl)-cyclopropyl-amino]-piperidine-1-carboxylic acid tert-butyl ester] displayed an EC50 of 418 nM.
With `CC(C)(C)OC(=O)N1CCC(N(C(=O)c2cnc(-c3ccc(CC(=O)NCc4ccccn4)cc3)nc2)C2CC2)CC1` [Example 215, 4-{Cyclopropyl-[2-(4-{[(pyridin-2-ylmethyl)-carbamoyl]-methyl}-phenyl)-pyrimidine-5-carbonyl]-amino}-piperidine-1-carboxylic acid tert-butyl ester] the figure was 393 nM; with `COC1CN(C(=O)Cc2ccc(-c3ncc(C(=O)N(C4CC4)C4CCN(C(=O)OC(C)(C)C)CC4)cn3)cc2)C1` [Example 216, 4-[Cyclopropyl-(2-{4-[2-(3-methoxy-azetidin-1-yl)-2-oxo-ethyl]-phenyl}-pyrimidine-5-carbonyl)-amino]-piperidine-1-carboxylic acid tert-butyl ester], 424 nM.
In turn, `CC(C)(C)OC(=O)N1CCC(N(C(=O)c2cnc(-c3ccc(CC(=O)Nc4cccc(CO)c4)cc3)nc2)C2CC2)CC1` [Example 217, 4-[Cyclopropyl-(2-{4-[(3-hydroxymethyl-phenylcarbamoyl)-methyl]-phenyl}-pyrimidine-5-carbonyl)-amino]-piperidine-1-carboxylic acid tert-butyl ester] showed an EC50 of 550 nM.
Molecule `CN(CC#N)C(=O)Cc1ccc(-c2ncc(C(=O)N(C3CC3)C3CCN(C(=O)OC(C)(C)C)CC3)cn2)cc1` [Example 218, 4-[(2-{4-[(Cyanomethyl-methyl-carbamoyl)-methyl]-phenyl}-pyrimidine-5-carbonyl)-cyclopropyl-amino]-piperidine-1-carboxylic acid tert-butyl ester] had an EC50 of 216 nM.
In turn, `CC(C)(C)OC(=O)N1CCC(N(C(=O)c2cnc(-c3ccc(CC(=O)NCC4CCCCO4)cc3)nc2)C2CC2)CC1` (stereo not drawn) [Example 219, 4-{Cyclopropyl-[2-(4-{[(tetrahydro-pyran-2-ylmethyl)-carbamoyl]-methyl}-phenyl)-pyrimidine-5-carbonyl]-amino}-piperidine-1-carboxylic acid tert-butyl ester] registered a concentration for a half-maximal effect (EC50) of 375 nM.
With `CN(CCOCC1CC1)C(=O)c1ccc(-c2ncc(C(=O)N(C3CC3)C3CCN(C(=O)OC(C)(C)C)CC3)cn2)cc1` [Example 220, 4-[Cyclopropyl-(2-{4-[(2-cyclopropylmethoxy-ethyl)-methyl-carbamoyl]-phenyl}-pyrimidine-5-carbonyl)-amino]-piperidine-1-carboxylic acid tert-butyl ester] the figure was 183 nM.
To `CN(CC#N)C(=O)c1ccc(-c2ncc(C(=O)N(C3CC3)C3CCN(C(=O)OC(C)(C)C)CC3)cn2)cc1` [Example 221, 4-({2-[4-(Cyanomethyl-methyl-carbamoyl)-phenyl]-pyrimidine-5-carbonyl}-cyclopropyl-amino)-piperidine-1-carboxylic acid tert-buyl ester] belongs 110 nM; to `CN(C(=O)c1ccc(-c2ncc(C(=O)N(C3CC3)C3CCN(C(=O)OC(C)(C)C)CC3)cn2)cc1)C1CCCOC1` (stereo not drawn) [Example 222, 4-[Cyclopropyl-(2-{4-[methyl-(tetrahydro-pyran-3-yl)-carbamoyl]-phenyl}-pyrimidine-5-carbonyl)-amino]-piperidine-1-carboxylic acid tert-butyl ester], 545 nM.
To `CN(CC(C)(C)O)C(=O)c1ccc(-c2ncc(C(=O)N(C3CC3)C3CCN(C(=O)OC(C)(C)C)CC3)cn2)cc1` [Example 223, 4-[Cyclopropyl-(2-{4-[(2-hydroxy-2-methyl-propyl)-methyl-carbamoyl]-phenyl}-pyrimidine-5-carbonyl)-amino]-piperidine-1-carboxylic acid tert-butyl ester] belongs 634 nM.
`CC(C)(C)OC(=O)N1CCC(N(C(=O)c2cnc(-c3ccc(C(=O)NCc4ccccn4)cc3)nc2)C2CC2)CC1` [Example 224, 4-[Cyclopropyl-(2-{4-[(pyridin-2-ylmethyl)-carbamoyl]-phenyl}-pyrimidine-5-carbonyl)-amino]-piperidine-1-carboxylic acid tert-butyl ester] registered a concentration for a half-maximal effect (EC50) of 157 nM.
With `CC(C)(C)OC(=O)N1CCC(N(C(=O)c2cnc(-c3ccc(C(=O)NCC4CCCCO4)cc3)nc2)C2CC2)CC1` (stereo not drawn) [Example 225, 4-[Cyclopropyl-(2-{4-[(tetrahydro-pyran-2-ylmethyl)-carbamoyl]-phenyl}-pyrimidine-5-carbonyl)-amino]-piperidine-1-carboxylic acid tert-butyl ester] the figure was 185 nM; with `COC1CN(C(=O)c2ccc(-c3ncc(C(=O)N(C4CC4)C4CCN(C(=O)OC(C)(C)C)CC4)cn3)cc2)C1` [Example 226, 4-(Cyclopropyl-{2-[4-(3-methoxy-azetidine-1-carbonyl)-phenyl]-pyrimidine-5-carbonyl}-amino)-piperidine-1-carboxylic acid tert-butyl ester], 179 nM; with `CC(C)(C)OC(=O)N1CCC(N(C(=O)c2cnc(-c3ccc(C(=O)NCCOC(F)(F)F)cc3)nc2)C2CC2)CC1` [Example 227, 4-(Cyclopropyl-{2-[4-(2-trifluoromethoxy-ethylcarbamoyl)-phenyl]-pyrimidine-5-carbonyl]-amino)-piperidine-1-carboxylic acid tert-butyl ester], 161 nM.
`CC(C)(C)OC(=O)N1CCC(N(C(=O)c2cnc(-c3ccc(C(=O)NCc4cocn4)cc3)nc2)C2CC2)CC1` [Example 228, 4-[Cyclopropyl-(2-{4-[(oxazol-4-ylmethyl)-carbamoyl]-phenyl}-pyrimidine-5-carbonyl)-amino]-piperidine-1-carboxylic acid tert-butyl ester] showed a half-maximal effective concentration (EC50) of 379 nM.
To `CC(C)(C)OC(=O)N1CCC(N(C(=O)c2cnc(-c3ccc(C(=O)NCc4cccnc4)cc3)nc2)C2CC2)CC1` [Example 229, 4-[Cyclopropyl-(2-{4-[(pyridin-3-ylmethyl)-carbamoyl]-phenyl}-pyrimidine-5-carbonyl)-amino]-piperidine-1-carboxylic acid tert-butyl ester] belongs 177 nM; to `CC(C)(C)OC(=O)N1CCC(N(C(=O)c2cnc(-c3ccc(C(=O)N4CCOCC4)cc3)nc2)C2CC2)CC1` [Example 230, 4-(Cyclopropyl-{2-[4-(morpholine-4-carbonyl)-phenyl]-pyrimidine-5-carbonyl}-amino)-piperidine-1-carboxylic acid tert-butyl ester], 297 nM; to `CC(C)(C)OC(=O)N1CCC(N(C(=O)c2cnc(-c3ccc(C(=O)Nc4ccnnc4)cc3)nc2)C2CC2)CC1` [Example 231, 4-(Cyclopropyl-{2-[4-(pyridazin-4-ylcarbamoyl)-phenyl]-pyrimidine-5-carbonyl}-amino)-piperidine-1-carboxylic acid tert-butyl ester], 414 nM.
